In ChEMBL document CHEMBL1770064, “Penicisteroids A and B, antifungal and cytotoxic polyoxygenated steroids from the marine alga-derived endophytic fungus Penicillium chrysogenum QEN-24S” (Bioorg Med Chem Lett, 2011):
≈ marks a conversion by molar mass, not a printed value. Calls of active or inactive are those of the source. No cut-off for these calls is given here.

Columns and labels:
[1] = tested on: Aspergillus niger; assay: Antifungal activity against Aspergillus niger assessed as diameter of the zone of inhibition at 20 ug/disk by disk diffusion method; format: functional; conditions: for zone of inhibition at 20 µg/disc: read-out: DIZ
[2] = tested on: Alternaria brassicae; assay: Antifungal activity against Alternaria brassicae assessed as diameter of the zone of inhibition at 20 ug/disk by disk diffusion method; format: functional; conditions: for zone of inhibition at 20 µg/disc: read-out: DIZ
[3] = tested on: NCI-H460; assay: Cytotoxicity against human NCI-H460 cells; format: functional, cell-based
[4] = tested on: SW1990; assay: Cytotoxicity against human SW1990 cells; format: functional, cell-based
[5] = tested on: HeLa; assay: Cytotoxicity against human HeLa cells; format: functional, cell-based

Structure (SMILES) | zone of inhibition at 20 µg/disc [1] | zone of inhibition at 20 µg/disc [2] | Activity [1] | Activity [2] | IC50 [3] | IC50 [4] | IC50 [5]
C[C@@H]1[C@H](O)[C@@H](C)/C=C/C=C/C=C/C=C/C=C/C=C/C=C/[C@H](O[C@@H]2O[C@H](C)[C@@H](O)[C@H](N)[C@@H]2O)C[C@@H]2O[C@](O)(C[C@@H](O)C[C@@H](O)[C@H](O)CC[C@@H](O)C[C@@H](O)CC(=O)O[C@H]1C)C[C@H](O)[C@H]2C(=O)O [AMPHOTERICIN B] | 24 mm | 16 mm |  |  |  |  | 
CC(=O)O[C@H]1C[C@H]2[C@H]3[C@H]([C@@H](O)C[C@]2(C)[C@H]1[C@H](C)/C=C/[C@H](C)C(C)C)[C@@]1(C)CC[C@H](O)CC1=C[C@@H]3O |  |  | inactive | inactive |  |  | 
CC(=O)O[C@H]1C[C@H]2[C@@H]3[C@@H](O)[C@@H](O)[C@H]4C[C@@H](O)CC[C@]4(C)[C@H]3[C@@H](O)C[C@]2(C)[C@H]1[C@H](C)/C=C/[C@H](C)C(C)C | 18 mm | 8 mm |  |  | 40 µg/mL (≈ 78.9 µM) | 31 µg/mL (≈ 61.2 µM) | 15 µg/mL (≈ 29.6 µM)
CC(=O)O[C@H]1C[C@H]2[C@H]3[C@H]([C@@H](O)C[C@]2(C)[C@H]1[C@H](C)/C=C/[C@H](C)C(C)C)[C@@]1(C)CC[C@H](O)C[C@@H]1C(=O)[C@@H]3O [ANICEQUOL] |  | 6 mm | Active |  |  |  | 
